Assay results from patent publication US20260256792A1, “TREATMENT OF CHRONIC SPONTANEOUS URTICARIA BY ADMINISTERING (R)-2-[3-[4-AMINO-3-(2-FLUORO-4-PHENOXY-PHENYL)PYRAZOLO[3,4-D]PYRIMIDIN-1-YL]PIPERIDINE-1-CARBONYL]-4-METHYL-4-[4-(OXETAN-3-YL)PIPERAZIN-1-YL]PENT-2-ENENITRILE” (priority 2023, published 2026).

Tested on: moderate-to-severe chronic spontaneous urticaria (CSU)
Experiment: Phase 2 CSU study: urticaria activity score over 7 days (UAS7)
Format: in vivo, human
Set-up: key to UAS7 Median / UAS7 Change from baseline Median / UAS7 change from baseline, Q1 / UAS7 change from baseline, Q3 / UAS7 change from baseline, Max / UAS7 Change from baseline LS Mean (SE): UAS7 points; daily UAS score ranges 0–6 points/day, over 7 days
Details: for UAS7 change from baseline at Week 12, LS Mean (SE): ANCOVA; for UAS7 Change from baseline Mean (SD) / UAS7 Change from baseline Median / UAS7 Percent change from baseline Mean (SD) / UAS7 Percent change from baseline Median / UAS7 change from baseline, Max / UAS7 change from baseline, Min / UAS7 change from baseline, Q1 / UAS7 change from baseline, Q3 / UAS7 percent change from baseline, Max / UAS7 percent change from baseline, Min / UAS7 percent change from baseline, Q1 / UAS7 percent change from baseline, Q3: double-blind period, last week block of Table 17 (week heading not shown)
From the text: The study comprises a 12 week, randomized, double-blind, placebo-controlled, multi-center, dose-ranging efficacy and safety phase, followed by a 40 week open label extension (OLE) phase (see FIG. 1). The study consists of three phases and an optional OLE phase. […] Clinically, CSU is characterized by the spontaneous and recurrent appearance of pruritic hives. The proposed primary endpoints were the UAS7 at Week 12 in EU and EU reference countries and the ISS7 in the US. Regardless of where a participant was from, all assessments were the same. The UAS7 score is a composite score containing both the HSS7 and the ISS7. This allowed a global assessment of the two key components of urticaria: hives and itch. […] The UAS is a validated PRO measure. […] The daily UAS scores range from 0 to 6 point/day. […] Patients were to complete the UAS using the e-diary. […] The following secondary endpoints were to be analyzed using the same approach as for the primary endpoint: • Change from baseline in UAS7 at Week 4 • Change from baseline in UAS7 at Week 12 (for US and US reference countries) • Change from baseline in ISS7 at Week 12 (except US and US reference countries) • Change from baseline in HSS7 at Week 12 The following responder secondary endpoints were to be analyzed using the Cochran-Mantel-Haenszel test adjusted by region: • Proportion of participants with UAS7<6 at Week 12 • Proportion of participants with UAS7=0 at Week 12 Participants who received selected prohibited medications and/or rescue medications were to be considered as non-responders for time points after the medication usage. For other participants, all available data including those collected during the off-treatment period were to be used to determine the responder/non-responder status. Missing data were to be considered as non-responders.

[1] = 400 mg BID, Omalizumab-Naïve Population (N = 35), n observed/imputed 5 (3/2)
[2] = 400 mg BID, Week 12, omalizumab-naïve
[3] = 400 mg BID, omalizumab-naïve population
[4] = 400 mg BID, omalizumab-naïve population with outlier removed
[5] = 400 mg QPM, Omalizumab-Naïve Population (N = 37), n observed/imputed 7 (3/4)
[6] = 400 mg QPM, omalizumab-naïve population
[7] = 400 mg QPM, omalizumab-naïve population with outlier removed

SMILES: CC(C)(C=C(C#N)C(=O)N1CCC[C@@H](n2nc(-c3ccc(Oc4ccccc4)cc3F)c3c(N)ncnc32)C1)N1CCN(C2COC2)CC1 [rilzabrutinib, (R)-2-[3-[4-amino-3-(2-fluoro-4-phenoxy-phenyl)pyrazolo[3,4-d]pyrimidin-1-yl]piperidine-1-carbonyl]-4-methyl-4-[4-(oxetan-3-yl)piperazin-1-yl]pent-2-enenitrile]
- improvement compared to placebo across all endpoints (400 mg BID): positive improvements across all endpoints
- UAS7 at Week 12, Mean (SD) (400 mg BID, ITT population): 14.70 (14.29)
- UAS7 at Week 12, Median (400 mg BID, ITT population): 12.00
- UAS7 change from baseline at Week 12, LS Mean Diff vs. placebo (95% CI) (400 mg BID, ITT population): −3.62 (−8.87, 1.63)
- UAS7 change from baseline at Week 12, Mean (SD) (400 mg BID, ITT population): −16.02 (13.29) ^
- UAS7 change from baseline at Week 12, Median (400 mg BID, ITT population): −13.50
- UAS7 change from baseline at Week 12, LS Mean (SE) (400 mg BID, ITT population): −14.82 (1.98)
- LS mean change in UAS7 from baseline to Week 12 (see Table 18) (400 mg BID, ITT population, sentence on reductions following one week of treatment): −10.01
- UAS7 Change from baseline Mean (SD) [1]: −14.40 (13.79)
- UAS7 Change from baseline Median [1]: −13.00
- UAS7 Percent change from baseline Mean (SD) [1]: −51.30 (48.04) %
- UAS7 Percent change from baseline Median [1]: −48.15%
- UAS7 change from baseline, Max [1]: 0.0
- UAS7 change from baseline, Min [1]: −29.0
- UAS7 change from baseline, Q1 [1]: −28.00
- UAS7 change from baseline, Q3 [1]: −2.00
- UAS7 percent change from baseline, Max [1]: 0.0%
- UAS7 percent change from baseline, Min [1]: −100.0%
- UAS7 percent change from baseline, Q1 [1]: −100.00%
- UAS7 percent change from baseline, Q3 [1]: −8.33%
- participants with UAS7 of 0 [2]: 14.3%
- participants with UAS7 of ≤6 [2]: 20.0%
- LS mean reduction in UAS7 from baseline to Week 12 (see Table 19) [3]: −9.79
- UAS7 at Week 12, Mean (SD) [3]: 15.61 (13.91)
- UAS7 at Week 12, Median [3]: 14.00
- UAS7 change from baseline at Week 12, LS Mean Diff vs. placebo (95% CI) [3]: −4.09 (−9.59, 1.40)
- UAS7 change from baseline at Week 12, Mean (SD) [3]: −14.49 (12.08) ^
- UAS7 change from baseline at Week 12, Median [3]: −12.80
- UAS7 at Week 12, Mean (SD) [4]: 15.61 (13.91)
- UAS7 at Week 12, Median [4]: 14.00
- UAS7 change from baseline at Week 12, LS Mean Diff vs. placebo (95% CI) [4]: −4.29 (−9.74, 1.16)
- UAS7 change from baseline at Week 12, Mean (SD) [4]: −14.49 (12.08) ^
- UAS7 change from baseline at Week 12, Median [4]: −12.80
- UAS7 change from baseline at Week 12, LS Mean (SE) [4]: −14.30 (2.06)
- UAS7 change from baseline at Week 12, LS Mean (SE) [3]: −14.24 (2.06)
- difference to placebo across endpoints (400 mg QPM): no difference
- UAS7 at Week 12, Mean (SD) (400 mg QPM, ITT population): 21.80 (10.94)
- UAS7 at Week 12, Median (400 mg QPM, ITT population): 22.40
- UAS7 change from baseline at Week 12, LS Mean Diff vs. placebo (95% CI) (400 mg QPM, ITT population): 0.97 (−4.40, 6.34)
- UAS7 change from baseline at Week 12, Mean (SD) (400 mg QPM, ITT population): −11.04 (9.56)
- UAS7 change from baseline at Week 12, Median (400 mg QPM, ITT population): −9.40
- UAS7 change from baseline at Week 12, LS Mean (SE) (400 mg QPM, ITT population): −10.22 (2.01)
- UAS7 Change from baseline Mean (SD) [5]: −21.44 (16.26)
- UAS7 Change from baseline Median [5]: −28.00
- UAS7 Percent change from baseline Mean (SD) [5]: −66.12 (46.34) %
- UAS7 Percent change from baseline Median [5]: −86.67%
- UAS7 change from baseline, Max [5]: 0.3
- UAS7 change from baseline, Min [5]: −38.0
- UAS7 change from baseline, Q1 [5]: −36.40
- UAS7 change from baseline, Q3 [5]: 0.00
- UAS7 percent change from baseline, Max [5]: 1.1%
- UAS7 percent change from baseline, Min [5]: −100.0%
- UAS7 percent change from baseline, Q1 [5]: −100.00%
- UAS7 percent change from baseline, Q3 [5]: 0.00%
- UAS7 at Week 12, Median [6]: 22.87
- UAS7 change from baseline at Week 12, LS Mean Diff vs. placebo (95% CI) [6]: 0.40 (−5.08, 5.89)
- UAS7 change from baseline at Week 12, Mean (SD) [6]: −10.57 (9.36)
- UAS7 change from baseline at Week 12, Median [6]: −8.70
- UAS7 at Week 12, Median [7]: 22.87
- UAS7 change from baseline at Week 12, LS Mean Diff vs. placebo (95% CI) [7]: 0.08 (−5.29, 5.46)
- UAS7 change from baseline at Week 12, Mean (SD) [7]: −10.57 (9.36)
- UAS7 change from baseline at Week 12, Median [7]: −8.70
- UAS7 change from baseline at Week 12, LS Mean (SE) [7]: −9.93 (1.96) ^
- UAS7 change from baseline at Week 12, LS Mean (SE) [6]: −9.74 (2.00) ^
- patients with improvement in the weekly UAS7 (400 mg TID arm): all patients except for one showed improvement
- UAS7 at Week 12, Median (400 mg TID, ITT population): 9.00
